Counter-ions that a name gives are not always drawn.
target: T1, POsterior Segregation (Caenorhabditis elegans, UniProt G5EF15); test: disruptors of C. elegans POS-1 RNA interaction – biochemical, fluorescence polarization, dose response (AID 1964)
T1 sequence (G5EF15 whole entry): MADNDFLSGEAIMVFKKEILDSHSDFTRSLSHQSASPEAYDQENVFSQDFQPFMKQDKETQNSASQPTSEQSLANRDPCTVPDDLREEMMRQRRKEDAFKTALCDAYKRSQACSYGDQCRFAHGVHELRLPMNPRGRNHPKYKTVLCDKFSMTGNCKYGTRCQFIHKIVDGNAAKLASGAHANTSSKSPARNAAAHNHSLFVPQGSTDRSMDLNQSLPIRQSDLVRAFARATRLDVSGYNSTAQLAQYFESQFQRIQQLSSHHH

Structure (SMILES)	EC50 [µM]
NC(=O)c1ccccc1N=CCC(=O)c1ccc(F)cc1 [2-[[(E)-3-(4-fluorophenyl)-3-keto-prop-1-enyl]amino]benzamide]	> 300
O=c1c2ccccc2nc(N=NCc2ccc(O)cc2)n1O [3-Hydroxy-2-{N'-[1-(4-hydroxy-phenyl)-meth-(E)-ylidene]-hydrazino}-3H-quinazolin-4-one]	> 300
Cc1c(C(=O)O)cccc1-n1c(C)cc(CN=Nc2ccc([N+](=O)[O-])cn2)c1C	> 300
CSc1nnc(N2C(=O)C(=O)C(C(=O)c3ccco3)C2c2cccc(Cl)c2)s1 (stereo not drawn) [2-(3-chlorophenyl)-3-(furan-2-carbonyl)-4-hydroxy-1-(5-methylsulfanyl-1,3,4-thiadiazol-2-yl)-2H-pyrrol-5-one]	31.3
C=c1c(C(=O)OC)c(O)c(=Cc2ccco2)n1-c1ccccc1 [MLS000780287]	99
COc1cccc(C2C3CN(C)CCC3=C(C#N)C(=N)C2(C#N)C#N)c1OC (stereo not drawn) [6-Amino-8-(2,3-dimethoxy-phenyl)-2-methyl-2,3,8,8a-tetrahydro-1H-isoquinoline-5,7,7-tricarbonitrile]	2.18
Cc1ccc(Cl)c2c1NC(=O)/C2=C1/NC(=S)NC1=O	14.3
N#CC1C(=N)Oc2ccc3ccc(O)cc3c2C1c1ccsc1 (stereo not drawn) [3-amino-9-hydroxy-1-(3-thienyl)-1H-benzo[f]chromene-2-carbonitrile]	76.1
Nc1c(-c2nc3ccccc3[nH]2)c(O)cn1-c1ccc(CC(=O)O)cc1 [MLS000565528]	5.25
O=C1NC(=O)N(c2ccc(F)cc2)C(=O)C1=Cc1c[nH]c2ccccc12 [SMR000556295]	52.2
C=CCn1c(=O)c(=Cc2ccc(C)o2)s/c1=C(\C#N)C(=O)c1ccccc1 [2-[3-allyl-4-keto-5-[(5-methyl-2-furyl)methylene]thiazolidin-2-ylidene]-3-keto-3-phenyl-propionitrile]	30.7
C=CCOc1cccc(C2C(C(=O)c3ccc(C)o3)C(=O)C(=O)N2c2nnc(C)s2)c1 (stereo not drawn) [3-(5-methylfuran-2-yl)carbonyl-1-(5-methyl-1,3,4-thiadiazol-2-yl)-4-oxidanyl-2-(3-prop-2-enoxyphenyl)-2H-pyrrol-5-one]	> 300
O=C1C(=Nc2ccccc2O)C(Cl)C(=O)N1c1ccccc1 (stereo not drawn) [3-Chloro-4-(2-hydroxy-phenylamino)-1-phenyl-pyrrole-2,5-dione]	> 300
C=CC1=C(C(=O)O)N2C(=O)[C@@H](NC(=O)C(N=O)c3csc(N)n3)[C@H]2SC1 (stereo partly drawn) [(6R,7R)-7-[[2-(2-azanyl-1,3-thiazol-4-yl)-2-hydroxyimino-ethanoyl]amino]-3-ethenyl-8-oxidanylidene-5-thia-1-azabicyclo[4.2.0]oct-2-ene-2-carboxylic acid]	49.8
COc1cc(OC)c(C2C3=C(CC(C)CC3=O)OC(=N)C2C#N)cc1OC (stereo not drawn) [2-amino-4-asaryl-5-keto-7-methyl-4,6,7,8-tetrahydrochromene-3-carbonitrile]	> 300
CCCCOC(=O)c1ccc(NN=C2C(=O)NC(=O)C(C#N)=C2C)cc1 [MLS000778379]	> 300
COc1cccc(C2C(C(=O)c3cc4cccc(OC)c4o3)C(=O)C(=O)N2c2cc(C)on2)c1OC (stereo not drawn) [2-(2,3-dimethoxyphenyl)-3-[(7-methoxy-1-benzofuran-2-yl)carbonyl]-1-(5-methyl-1,2-oxazol-3-yl)-4-oxidanyl-2H-pyrrol-5-one]	> 300
Cc1cccc(Nc2nc(O)cs2)c1 [2-(3-methylanilino)-1,3-thiazol-4-one]	> 300
C=CCOc1ccc(C2C(C(=O)c3cccs3)C(=O)C(=O)N2c2nnc(C)s2)cc1 (stereo not drawn) [1-(5-methyl-1,3,4-thiadiazol-2-yl)-4-oxidanyl-2-(4-prop-2-enoxyphenyl)-3-thiophen-2-ylcarbonyl-2H-pyrrol-5-one]	10.8
O=CC(C=Nc1ccccn1)c1nc2cc(Cl)ccc2o1 (stereo not drawn) [(Z)-2-(5-chloranyl-1,3-benzoxazol-2-yl)-3-(pyridin-2-ylamino)prop-2-enal]	67.7
CC(C)(C)OC(=O)N1CCC2=C(C#N)C(=N)C(C#N)(C#N)[C@H](c3cccnc3)[C@H]2C1 [(8S,8aR)-6-amino-5,7,7-tricyano-8-(3-pyridinyl)-1,3,8,8a-tetrahydroisoquinoline-2-carboxylic acid tert-butyl ester]	61.7
O=C1C=CC(/C=C/c2nc(O)c([N+](=O)[O-])c(=O)[nH]2)C=C1O (stereo not drawn) [SMR000524347]	250
CCOc1ccc(N2C(=O)NC(=O)C(=Cc3c[nH]c4ccccc34)C2=O)cc1 [(5E)-1-(4-ethoxyphenyl)-5-(1H-indol-3-ylmethylidene)-1,3-diazinane-2,4,6-trione]	20.9
CCN(CC)CCN1C(=O)C(=O)C(C(=O)c2cc3cccc(OC)c3o2)C1c1ccc(F)cc1 (stereo not drawn) [1-(2-Diethylamino-ethyl)-5-(4-fluoro-phenyl)-3-hydroxy-4-(7-methoxy-benzofuran-2-carbonyl)-1,5-dihydr o-pyrrol-2-one]	> 300

Structure (SMILES)	EC50 [µM]
CN(C)c1ccc(O)c2c1CC1CC3C(N(C)C)C(=O)C(C(N)=O)C(=O)[C@@]3(O)C(=O)C1C2=O (stereo partly drawn) [(2E,12aS)-2-[azanyl(oxidanyl)methylidene]-4,7-bis(dimethylamino)-10,11,12a-tris(oxidanyl)-4a,5,5a,6-tetrahydro-4H-tetracene-1,3,12-trione;hydrochloride]	> 300
O=C1NC(=O)N(Cc2ccccc2)C(=O)C1=CNc1ccc(CN2CCOCC2)cc1 [(5E)-1-benzyl-5-[[4-(morpholin-4-ylmethyl)anilino]methylidene]-1,3-diazinane-2,4,6-trione]	> 300
Cc1ccc(C(=O)C2C(=O)C(=O)N(Cc3ccco3)C2c2cccc(Br)c2)o1 (stereo not drawn) [2-(3-bromophenyl)-1-(2-furanylmethyl)-4-hydroxy-3-[(5-methyl-2-furanyl)-oxomethyl]-2H-pyrrol-5-one]	> 300
O=C(/C=C/c1ccco1)NCC(=O)NNC1=c2ccccc2=NC1=O [MLS001075666]	13.1
Cc1c(NC=C2C(=O)N(C)C(=O)c3ccccc32)c(=O)n(-c2ccccc2)n1C [(4E)-4-[[(1,5-dimethyl-3-oxo-2-phenyl-4-pyrazolyl)amino]methylidene]-2-methylisoquinoline-1,3-dione]	> 300
O=C1C=C(NNC(=O)c2sc3ccccc3c2Cl)CCC1 [3-chloranyl-N-[(3-oxidanylidenecyclohexylidene)amino]-1-benzothiophene-2-carboxamide]	22
CN1CCC2=C(C#N)C(=N)C(C#N)(C#N)C(c3cccc(Cl)c3Cl)C2C1 (stereo not drawn) [6-azanyl-8-[2,3-bis(chloranyl)phenyl]-2-methyl-1,3,8,8a-tetrahydroisoquinoline-5,7,7-tricarbonitrile]	14.4
C=CCc1cccc(C=Nn2cnnc2)c1O [(6E)-2-allyl-6-[(1,2,4-triazol-4-ylamino)methylene]cyclohexa-2,4-dien-1-one]	226
Cc1ccc2oc(=O)c(CC(=O)CC(C)C)nc2c1 [(3Z)-3-(2-keto-4-methyl-pentylidene)-6-methyl-4H-1,4-benzoxazin-2-one]	> 300
COc1ccc(CCN2C(=O)NC(=O)C(=CNc3ccc(NC(C)=O)cc3)C2=O)cc1OC [MLS000332913]	> 300
O=C1NC(=O)N(c2cccc(F)c2)C(=O)C1=Cc1c[nH]c2ccccc12	> 300
COc1ccc(NC=C2C(=O)NC(=S)N(Cc3ccccc3)C2=O)c(OC)c1 [1-Benzyl-5-[1-(2,4-dimethoxy-phenylamino)-meth-(Z)-ylidene]-2-thioxo-dihydro-pyrimidine-4,6-dione]	> 300
CC1(C)CC(=O)C2=C(C1)OC(=N)C(C#N)C2c1ccccc1 (stereo not drawn) [2-amino-5-keto-7,7-dimethyl-4-phenyl-6,8-dihydro-4H-chromene-3-carbonitrile]	> 300
COc1ccc(C2CC(c3ccc(Br)s3)=Nc3ncnn32)cc1OC (stereo not drawn) [SMR000032927]	7.82
C=CCSc1nnc(N2C(=O)C(=O)C(C(=O)c3ccco3)C2c2ccccc2F)s1 (stereo not drawn) [1-[5-(allylthio)-1,3,4-thiadiazol-2-yl]-5-(2-fluorophenyl)-4-(2-furoyl)-3-hydroxy-3-pyrrolin-2-one]	48.3
O=C(Cc1nc2cc([N+](=O)[O-])ccc2[nH]c1=O)c1ccccc1 [6-Nitro-3-(2-oxo-2-phenyl-ethylidene)-3,4-dihydro-1H-quinoxalin-2-one]	20.1
Cc1ccc(NNC2=Nc3ccccc3C2=O)cc1 [2-[(4-methylphenyl)hydrazo]-3-indolone]	16
COc1[nH]c(N=Cc2ccccc2)c(C#N)c1C#N [2-methoxy-5-[(phenylmethylene)amino]-1H-pyrrole-3,4-dicarbonitrile]	6.46
COc1cc(C2C3=C(CCCC3=O)OC(=N)C2C#N)ccc1OC(=O)N1CCOCC1 (stereo not drawn) [4-(2-amino-3-cyano-5-oxo-5,6,7,8-tetrahydro-4H-chromen-4-yl)-2-methoxyphenyl morpholine-4-carboxylate]	> 300
Cc1ccc(-c2c(CCC(C)N=O)oc3ccc(Cl)cc23)o1 (stereo not drawn) [4-[5-chloro-3-(5-methyl-2-furanyl)-2-benzofuranyl]-2-butanone oxime]	> 300
N#CC1C(=N)OC2=C(C(=O)CC(c3ccco3)C2)C1c1ccc(OCc2c(F)cccc2Cl)cc1 (stereo not drawn) [2-azanyl-4-[4-[(2-chloranyl-6-fluoranyl-phenyl)methoxy]phenyl]-7-(furan-2-yl)-5-oxidanylidene-4,6,7,8-tetrahydrochromene-3-carbonitrile]	> 300
N#CC1C(=N)C2=C(N3CCCCC3)CCCC2C1(C#N)C#N (stereo not drawn) [3-Amino-4-piperidin-1-yl-5,6,7,7a-tetrahydro-indene-1,1,2-tricarbonitrile]	89.4
O=C1CC(=O)c2c(O)cc(O)c(O)c2C1=O [4,5,7,8-tetrahydroxy-1,2-naphthoquinone]	1.07
CN1CCC2=C(C#N)C(=N)C(C#N)(C#N)C(c3ccncc3)C2C1 (stereo not drawn) [6-amino-2-methyl-8-(4-pyridyl)-1,3,8,8a-tetrahydroisoquinoline-5,7,7-tricarbonitrile]	52.9

From BindingDB's records for doi:10.7270/Q28G8J4C (Broad Institute, 2009)
